Like-named read-outs stand apart in the source and are kept apart here.
Key:
hM1 mAChR = target: T1, hM1 mAChR (Homo sapiens, UniProt P11229); assay: IP1 accumulation assay (ACh concentration-response curves in absence or presence of modulator); type: cell-based; details: for αβ (functional cooperativity with ACh) / τB (intrinsic efficacy of the modulator) / log τB (logarithm of intrinsic efficacy of the modulator) / log αβ (logarithm of functional cooperativity between ACh and modulator): IP1 accumulation; for αβ (functional cooperativity with ACh) / τB (intrinsic efficacy of the modulator): antilog, in parentheses; for log τB (logarithm of intrinsic efficacy of the modulator) / log αβ (logarithm of functional cooperativity between ACh and modulator): operational model; for log αβ (logarithm of functional cooperativity between ACh and modulator): pKB constrained to binding value; for activation at 1 µM: read-out: Δbaseline [1 μM]: change in basal response in presence of M1 PAM compared to control curve; for activation at 10 µM: read-out: Δbaseline [10 μM]: change in basal response in presence of M1 PAM compared to control curve
T1 construct: expressed in transfected cells
T1 sequence (P11229 1-460): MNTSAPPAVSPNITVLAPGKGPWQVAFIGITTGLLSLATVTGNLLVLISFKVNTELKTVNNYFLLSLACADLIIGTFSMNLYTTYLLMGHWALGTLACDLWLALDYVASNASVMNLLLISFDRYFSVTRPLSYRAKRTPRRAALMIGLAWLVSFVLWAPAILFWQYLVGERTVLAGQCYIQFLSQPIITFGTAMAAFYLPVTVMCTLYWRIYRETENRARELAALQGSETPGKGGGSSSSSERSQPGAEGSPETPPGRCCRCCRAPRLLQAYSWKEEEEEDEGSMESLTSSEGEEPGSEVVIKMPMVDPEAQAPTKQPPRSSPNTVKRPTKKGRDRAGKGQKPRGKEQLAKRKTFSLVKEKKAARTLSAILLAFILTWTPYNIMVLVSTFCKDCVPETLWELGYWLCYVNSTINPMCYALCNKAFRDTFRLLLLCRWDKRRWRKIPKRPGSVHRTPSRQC

[1] = In vivo brain and plasma exposure in mice after IP administration; details: for cbrain, total concentration, 90 min post-dose / cplasma, total concentration, 90 min post-dose / cplasma, total concentration, 20 or 45 min post-dose: range n=3; for cbrain, total concentration, 20 or 45 min post-dose / cplasma, total concentration, 20 or 45 min post-dose: 20 min (10 mg/kg) for 2, 7f, 13c, 45 min (20 mg/kg) for BQCA; for cbrain, total concentration, 20 or 45 min post-dose: range in individual mice n=3
Experimental: The study was performed using 10–12 weeks old male C57Bl/6 J naïve mice in accordance with the Australian Code of Practice for the Care and Use of Animals for Scientific Purposes, with procedures approved by the Animal Ethics Committee of the Monash Institute of Pharmaceutical Sciences.

[2] = 1 μM modulator, FlpIn CHO hM1 cells, mean ± SEM, 3 experiments
[3] = 10 μM modulator, FlpIn CHO hM1 cells, mean ± SEM, 3 experiments
[4] = 10 mg/kg (BQCA 20 mg/kg), range n=3, in parentheses
[5] = 20 min (10 mg/kg) for 2, 45 min (20 mg/kg) for BQCA, range n=3, in parentheses

Structure (SMILES): Cn1cc(-c2ccc(COc3ccccc3-c3cc(=O)n(C4CCCCC4O)cn3)cc2)cn1 (stereo not drawn) [Compound 2, 3-(2-Hydroxycyclohexyl)-6-(2-((4-(1-methyl-1H-pyrazol-4-yl)benzyl)oxy)phenyl)pyrimidin-4(3H)-one]
- ΔpEC50 [1 μM]: change in ACh pEC50 in presence of M1 PAM compared to control curve (hM1 mAChR; [2]): 1.52±0.14
- ΔpEC50 [10 μM]: change in ACh pEC50 in presence of M1 PAM compared to control curve (hM1 mAChR; [3]): 1.28±0.42
- αβ (functional cooperativity with ACh) (hM1 mAChR): 363
- τB (intrinsic efficacy of the modulator) (hM1 mAChR): 6
- log τB (logarithm of intrinsic efficacy of the modulator) (hM1 mAChR): 0.78±0.02
- log αβ (logarithm of functional cooperativity between ACh and modulator) (hM1 mAChR): 2.56±0.07
- activation at 1 µM (hM1 mAChR): 55.1 ± 2.4%
- activation at 10 µM (hM1 mAChR): 85.3 ± 2.4%
- cbrain, total concentration, 90 min post-dose ([1]; 10 mg/kg (BQCA 20 mg/kg)): 0.0 to 0.1 µM
- cplasma, total concentration, 90 min post-dose ([1]; 10 mg/kg (BQCA 20 mg/kg)): 0.7 to 1.1 µM
- cbrain, unbound concentration, 90 min post-dose [1, 4]: 0.0 µM
- cplasma, unbound concentration, 90 min post-dose [1, 4]: 0.0 µM
- cbrain, total concentration, 20 or 45 min post-dose [1]: 0.7 to 1.2 µM
- cplasma, total concentration, 20 or 45 min post-dose [1]: 15.0 to 16.5 µM
- cbrain, unbound concentration, 20 or 45 min post-dose [1, 5]: 0.0 µM
- cplasma, unbound concentration, 20 or 45 min post-dose [1, 5]: 0.1 µM

Structure (SMILES): Cn1cc(-c2ccc(COc3ncccc3-c3ccn(C4CCCCC4O)c(=O)c3)cc2)cn1 (stereo not drawn) [Compound 7f, 1’-(2-Hydroxycyclohexyl)-2-((4-(1-methyl-1H-pyrazol-4-yl)benzyl)oxy)-[3,4’-bipyridin]-2’(1’H)-one]
- ΔpEC50 [1 μM]: change in ACh pEC50 in presence of M1 PAM compared to control curve (hM1 mAChR; [2]): 0.76±0.07
- activation at 1 µM (hM1 mAChR; [2]): 4.8 ± 1.9%
- ΔpEC50 [10 μM]: change in ACh pEC50 in presence of M1 PAM compared to control curve (hM1 mAChR; [3]): 1.41±0.10
- activation at 10 µM (hM1 mAChR; [3]): 20.5 ± 2.5%
- αβ (functional cooperativity with ACh) (hM1 mAChR): 316
- τB (intrinsic efficacy of the modulator) (hM1 mAChR): 4
- log τB (logarithm of intrinsic efficacy of the modulator) (hM1 mAChR): 0.56±0.05
- log αβ (logarithm of functional cooperativity between ACh and modulator) (hM1 mAChR): 2.50±0.08
- cplasma, total concentration, 90 min post-dose ([1]; 10 mg/kg (BQCA 20 mg/kg)): 11.1–13.7 (n.a.) μM
- cbrain, total concentration, 20 or 45 min post-dose [1]: 0.3–0.4 (n.a.) μM
- cplasma, total concentration, 20 or 45 min post-dose [1]: 31.8–40.7 (n.a.) μM

Structure (SMILES): CN(C)C(=O)Cn1ccc(-c2ccccc2OCc2ccc(-c3cnn(C)c3)cc2)cc1=O [Compound 13c, N,N-Dimethyl-2-(4-(2-((4-(1-methyl-1H-pyrazol-4-yl)benzyl)oxy)phenyl)-2-oxopyridin-1(2H)-yl)acetamide]
- ΔpEC50 [1 μM]: change in ACh pEC50 in presence of M1 PAM compared to control curve (hM1 mAChR; [2]): 0.73±0.08
- activation at 1 µM (hM1 mAChR; [2]): 2.1 ± 2.1%
- ΔpEC50 [10 μM]: change in ACh pEC50 in presence of M1 PAM compared to control curve (hM1 mAChR; [3]): 1.33±0.17
- activation at 10 µM (hM1 mAChR; [3]): 63.6 ± 2.3%
- αβ (functional cooperativity with ACh) (hM1 mAChR): 118
- τB (intrinsic efficacy of the modulator) (hM1 mAChR): 3
- log τB (logarithm of intrinsic efficacy of the modulator) (hM1 mAChR): 0.45±0.03
- log αβ (logarithm of functional cooperativity between ACh and modulator) (hM1 mAChR): 2.07±0.08
- cbrain, total concentration, 90 min post-dose ([1]; 10 mg/kg (BQCA 20 mg/kg)): n.q.
- cplasma, total concentration, 90 min post-dose ([1]; 10 mg/kg (BQCA 20 mg/kg)): 4.9–5.4 (n.a.) μM
- cbrain, total concentration, 20 or 45 min post-dose [1]: n.q.
- cplasma, total concentration, 20 or 45 min post-dose [1]: 25.3–46.5 (n.a.) μM

From paper PMC7616174, “Development of Novel 4-Arylpyridin-2-one and 6-Arylpyrimidin-4-one Positive Allosteric Modulators of the M1 Muscarinic Acetylcholine Receptor” (ChemMedChem, 2020)
